Test results taken from patent US8003673B2, “Daptomycin for the treatment of biofilm and catheter salvage” (Cubist Pharmaceuticals, Inc., priority 2006, dated 2011).
Converted amounts (≈) assume the structure as drawn. Read-outs that look alike come from different tables or passages of the source.

Experiments:
[1] = test system: Staphylococcus epidermidis; test: Susceptibility (MIC) of S. epidermidis isolates used in CVC studies
Staphylococcus aureus = test: Susceptibility (MIC) of S. aureus #42 control strain; format: cell-based
[2] = test system: Methicillin-resistant coagulate negative staphylococci biofilms; format: cell-based, coagulase negative staphylococci (S. epidermidis isolates)
Procedure: Methicillin-resistant coagulate negative staphylococci biofilms were grown to approximately 10^5 cells per cm^2 for 24 h in glass test tubes, planktonic bacteria rinsed away and Mueller Hinton broth (calcium supplemented to […] in daptomycin tests) containing antimicrobials added to the tubes. The concentrations of antimicrobials studied were two-fold dilutions from 64 to 1 μg/mL of daptomycin, rifampin, or daptomycin plus 0.5 μg/mL rifampin. The tests were incubated overnight in room air at 37° C. The cell density in rinsed biofilms was determined prior to addition of antimicrobials and after incubation. The change in bacterial density after incubation with antimicrobials was determined, and the results were expressed as the lowest antimicrobial concentration that killed 99.90% of biofilm bacteria. Bacteria recovered from tests containing rifampin were tested for rifampin susceptibility.

[3] = test system: S. epidermidis CVC infection; test: Rat model of CVC infection, infusion therapy; format: in vivo, Sprague Dawley rats
Procedure: (§1) Male Sprague Dawley rats (˜250 g) with catheterized jugular veins were used in these studies. Rat catheters (polyurethane tubing, 0.025 inch internal diameter) were inoculated with a culture of S. epidermidis at 5×10^8 CFU/ml. The total volume of the catheters is approximately 40 μl. The catheters were flushed with heparinized saline 1 hour after inoculation, and were maintained by daily flushes. The catheter infection was monitored by daily blood draws that were plated and quantified.
(§2) Daptomycin, vancomycin and nafcillin were used as therapy. Two different dosing regimes were used. The first mimicked clinical infusion with daptomycin administered at 5 mg/ml in the line for 30 minutes once daily compared to vancomycin at 5 mg/ml for 60 minutes twice daily, for a total of 4 days. The second regime simulated antibiotic lock therapy with an 18 hour exposure of daptomycin or vancomycin at 5 mg/ml, followed by a heparinized saline flush, daily for 3 days. In both regimes, the animals received parenteral doses of the appropriate antibiotic by subcutaneous route to simulate total body exposure (as it was not possible to administer the correct dosages through the line at 5 mg/ml). Most trials involved a therapy period, followed by a period of no antibiotic therapy to monitor for resurgence of infection due to surviving bacterial colonies.
(§3) Infection levels were monitored by daily blood draws through the infected catheter. For the terminal harvest, a final blood draw was taken and then the flushed catheter was harvested, and analyzed for surviving bacteria by sonication, vortexing, and plating. The vena cava, heart, lung, kidney, and spleen were assayed as potential metastatic infection sites by aseptic harvest, homogenization, and plating.

[4] = test system: S. epidermidis CVC infection; test: Rat model of CVC infection, antibiotic lock therapy; format: in vivo, Sprague Dawley rats; details: for Metastatic infection after lock therapy: lock therapy combined with SC dosing
Procedure: as §1, §2, §3

[5] = test system: stationary phase S. epidermidis; test: In vitro model of stationary phase bacteria (kill kinetics); format: cell-based; details: for Cidal activity against stationary phase culture: through 24 hours
Procedure: The impact of cidal activity of antibacterial compounds on stationary phase bacteria was assayed. Cultures of S. epidermidis and S. aureus were grown to stationary phase (>1×10^9 and centrifuged, washed 2×, and then resuspended into saline or lactated Ringer's solution. The cultures were treated with either daptomycin or vancomycin at 5 mg/ml and the decrease in viable bacteria were measured through 24 hours to determine the kill kinetics.

[6] = test system: S. epidermidis biofilm in catheter; test: Histopathology of CVC biofilms in the rat model; format: in vivo, Sprague Dawley rats
Procedure: The nature of the CVC infection and resulting biofilms in the catheter was determined through histopathology. The data on histopathology can be summarized as follows: • 1. Eight days after implantation, the rat central venous catheter model develops focal biofilms with or without bacterial colonies in the catheter's inner luminal surfaces. At this time point, the thickness of the biofilm varies between 7 to 15 microns. • 2. After 12 days of implantation, the fibrils making up the inner luminal surface biofilm appear to be denser and more organized, and the biofilm layer is slightly thicker (up to 25 microns). • 3. In the saline negative controls, bacterial colonies were present in the biofilm, and identified as Gram positive cocci. • 4. […] However, cocci-like, Gram positive individual round structures were noted. • 5.
At day 12 post infection in untreated rats, as in the previous time point, biofilms tended to be present in the inner luminal surfaces of the indwelling catheter, 5-25 microns thick, and contained variable numbers of basophilic granular bacterial colonies (confirmed by Gram stain). However, in contrast to the previous time point, focal portions of the luminal protein cast appeared to be more organized and contained numerous bluish bacterial colonies. See FIG. 10 showing the biofilm appearance at day 12 post infection. […] Rat A1 served as negative control and received saline (2 mL/kg SC+saline via catheter); Rat A6 received low-dose daptomycin (10 mg/kg SC+5 mg/mL via catheter); Rat A12 received high-dose daptomycin (33 mg/kg SC+5 mg/mL via catheter); and Rat A17 received vancomycin (50 mg/kg SC+5 mg/mL via catheter). Tissues from the four rats were evaluated. FIG. 11, below, is a composite of the findings for all four rats.
FIG. 11 provides histopathological evidence of daptomycin and vancomycin efficacy after 4 days of infusion therapy. In FIG. 11, from left to right, the images illustrate the CVC tissues from rats A1, A6, A12, and A17, respectively. The upper images are all H&E-stained and the bottom images are all Gram-stained. […] These round structures surrounded or encircled cell membranes.

[7] = strain 119 Staphylococcus epidermidis
[8] = strain 1315 Staphylococcus epidermidis
[9] = strain 1316 Staphylococcus epidermidis
[10] = strain 1317 Staphylococcus epidermidis
[11] = strain 1318 Staphylococcus epidermidis
[12] = strain 1319 Staphylococcus epidermidis
[13] = strain 1320 Staphylococcus epidermidis
[14] = strain 42 Staphylococcus aureus, read-out: MIC
[15] = Antimicrobial Concentration ≧64
[16] = day 15, after 6 days of antibiotic-free heparin flushes following infusion therapy
[17] = following 7 days of antibiotic-free heparin flushes

| Structure (SMILES) | MIC [1, 7] [µg/mL] | MIC [1, 8] [µg/mL] | MIC [1, 9] [µg/mL] | MIC [1, 10] [µg/mL] | MIC [1, 11] [µg/mL] | MIC [1, 12] [µg/mL] | MIC [1, 13] [µg/mL] | MIC (Staphylococcus aureus; [14]) [µg/mL] | Animals with positive catheter at harvest after lock therapy [4, 17] | Metastatic infection after lock therapy [4] | further results |
| --- | --- | --- | --- | --- | --- | --- | --- | --- | --- | --- | --- |
| CC(=O)NC[C@H]1CN(c2ccc(N3CCOCC3)c(F)c2)C(=O)O1 [Linezolid] | 1 (≈ 2.96 µM) | 0.5 (≈ 1.48 µM) | 1 (≈ 2.96 µM) | 0.5 (≈ 1.48 µM) | 1 (≈ 2.96 µM) | 0.5 (≈ 1.48 µM) | 1 (≈ 2.96 µM) | 2 (≈ 5.93 µM) |  |  |  |
| CO[C@H]1/C=C/O[C@@]2(C)Oc3c(C)c(O)c4c(O)c(c(/C=N/N5CCN(C)CC5)c(O)c4c3C2=O)NC(=O)/C(C)=C\C=C\[C@H](C)[C@H](O)[C@@H](C)[C@@H](O)[C@@H](C)[C@H](OC(C)=O)[C@@H]1C [Rifampicin] | 0.008 (≈ 0.00972 µM) | < 0.004 | 0.008 (≈ 0.00972 µM) | > 4 |  | < 0.004 | 0.008 (≈ 0.00972 µM) | < 0.004 |  |  | # of isolates (lowest concentration that killed 99.90% of biofilm bacteria) ([2]; Antimicrobial Concentration 1): 1 (1); (N) number of rifampin susceptible isolates that became rifampin resistant during test ([2]; Antimicrobial Concentration 1): 1 (1); Mean log10 reduction ([2]; Antimicrobial Concentration 1): 3.5 log10; # of isolates (lowest concentration that killed 99.90% of biofilm bacteria) ([2]; Antimicrobial Concentration 2): 0; # of isolates (lowest concentration that killed 99.90% of biofilm bacteria) ([2]; Antimicrobial Concentration 4): 1; Mean log10 reduction ([2]; Antimicrobial Concentration 4): 3.2 log10; # of isolates (lowest concentration that killed 99.90% of biofilm bacteria) ([2]; Antimicrobial Concentration 8): 2; Mean log10 reduction ([2]; Antimicrobial Concentration 8): 3.4 log10; # of isolates (lowest concentration that killed 99.90% of biofilm bacteria) ([2]; Antimicrobial Concentration 16): 2; (N) number of rifampin susceptible isolates that became rifampin resistant during test ([2]; Antimicrobial Concentration 16): 1; Mean log10 reduction ([2]; Antimicrobial Concentration 16): 3.0 log10; # of isolates (lowest concentration that killed 99.90% of biofilm bacteria) ([2]; Antimicrobial Concentration 32): 0; # of isolates (lowest concentration that killed 99.90% of biofilm bacteria) [2, 15]: 21; (N) number of rifampin susceptible isolates that became rifampin resistant during test [2, 15]: 7; Mean log10 reduction [2, 15]: 1.4 log10 |
| CN[C@H](CC(C)C)C(=O)N[C@H]1C(=O)N[C@@H](CC(N)=O)C(=O)N[C@H]2C(=O)N[C@H]3C(=O)N[C@H](C(=O)N[C@H](C(=O)O)c4cc(O)cc(O)c4-c4cc3ccc4O)[C@H](O)c3ccc(c(Cl)c3)Oc3cc2cc(c3O[C@@H]2O[C@H](CO)[C@@H](O)[C@H](O)[C@H]2O[C@H]2C[C@](C)(N)[C@H](O)[C@H](C)O2)Oc2ccc(cc2Cl)[C@H]1O [Vancomycin] | 1 (≈ 0.69 µM) | 1 (≈ 0.69 µM) | 1 (≈ 0.69 µM) | 1 (≈ 0.69 µM) | 2 (≈ 1.38 µM) | 1 (≈ 0.69 µM) | 1 (≈ 0.69 µM) |  | None | cleared and prevented reemergence of metastatic infection | Catheter infection by CVC blood draw after infusion therapy ([3]; 5 mg/ml in line, daptomycin once a day, vancomycin twice a day, after three days of therapy (day 8)): reduced most catheter infections to a non-detectable level; Relative efficacy in the rat CVC model ([3]; comparison between treatments): equally effective (to daptomycin in Ringer's); Animals with harvested catheter positive for S. epidermidis CFUs [3, 16]: 2/6; Animals with positive blood draws through the catheter [3, 16]: 0/6; Clearing of blood draw cultures during infusion therapy ([3]; doses days 5-8, daptomycin 30 minute once a day, vancomycin 60 min twice a day): negative blood draw cultures by day 8; Metastatic infection after infusion therapy (vena cava, heart, lung, kidney, spleen) ([3]; infusion therapy, same groups as FIG. 3): very little metastatic infection at any site; Overall outcome of lock therapy ([4]; 18 hour lock at 5 mg/ml): curative in lock therapy; Animals with positive blood draws after lock therapy [4, 17]: None; MIC (Staphylococcus aureus; Staphylococcus aureus): 0.25 µg/mL (≈ 0.173 µM); Cidal activity against stationary phase culture ([5]; 5 mg/ml in lactated Ringer's): no cidal activity; Cidal activity against stationary phase culture ([5]; 5 mg/ml in lactated Ringer's, listed as vancomycin): not cidal; Cidal activity against stationary phase culture ([5]; 5 mg/ml in saline): neither daptomycin nor vancomycin had cidal activity; Cidal activity against stationary phase S. epidermidis (conclusion) ([5]; in vitro, medium not stated): not cidal; Biofilm formation and Gram positive bacterial colonies in the biofilm (histopathology summary) ([6]; 5 mg/mL via the catheter): did not prevent biofilm formation, or completely the growth and presence of Gram positive bacterial colonies in the biofilm; Bacterial colonies in biofilm, histopathology of single rats ([6]; after 4 days of infusion therapy, rat A12 daptomycin 33 mg/kg SC + 5 mg/mL via catheter, rat A17 vancomycin 50 mg/kg SC + 5 mg/mL via catheter): Biofilms containing true bacterial colonies |
| CCOc1ccc2ccccc2c1C(=O)N[C@@H]1C(=O)N2[C@@H]1SC(C)(C)[C@@H]2C(=O)O [Nafcillin] | 0.031 (≈ 0.0748 µM) | 2 (≈ 4.83 µM) | 16 (≈ 38.6 µM) | 0.125 (≈ 0.302 µM) | > 16 | 16 (≈ 38.6 µM) | > 16 | 0.125 (≈ 0.302 µM) | all | A significant proportion of nafcillin-treated animals showed positive metastatic infections at multiple sites |  |
